Counter-ions that a name gives are not always drawn. Like-named read-outs stand apart in the source and are kept apart here.
Tests used:
[1] = system: NCI-H292 lung cancer cells; assay: FDA drug screening, complete media vs cholesterol-free media without statin (TABLE 1); type: cell-based, human
[2] = system: NCI-H292 lung cancer cells; assay: FDA drug screening, complete media vs cholesterol-free media with simvastatin (TABLE 2); type: cell-based, human
[3] = Complete minus Cholesterol-free, >0 enhanced anti-cancer activity, about 0 neutral, <0 antagonist
[4] = NCI-H292 cells, cholesterol-free media without statin
[5] = NCI-H292 cells, cholesterol-free media with simvastatin 0.04 μM, cell growth value in FDA drug screen
[6] = NCI-H292 cells, complete media, cell growth value in FDA drug screen
[7] = complete media minus cholesterol-free media + simvastatin, >0 enhanced anti-cancer activity, about 0 neutral, <0 antagonist
[8] = Complete minus Cholesterol-free, […]
[9] = NCI-H292 cells, FDA drug library screen, cholesterol-free media without statin
[10] = NCI-H292 cells, FDA drug library screen, complete media
[11] = NCI-H292 cells, FDA drug library screen, cholesterol-free media with simvastatin 0.04 μM
[12] = NCI-H292 cells in cholesterol-free media without statin
[13] = NCI-H292 cells in complete media
[14] = NCI-H292 cells, cholesterol-free media without statin, FDA drug library screen
[15] = NCI-H292 cells, complete media, FDA drug library screen
[16] = complete media vs cholesterol-free media + simvastatin (0.04 μM), […]
[17] = NCI-H292 cells, FDA library drug in cholesterol-free media with simvastatin 0.04 μM
[18] = NCI-H292 cells, FDA library drug in complete media
[19] = complete vs cholesterol-free media, greater than 0 enhanced anti-cancer activity, about 0 neutral, below 0 antagonists
[20] = NCI-H292 cells, drug in cholesterol-free media with simvastatin 0.04 μM
[21] = NCI-H292 cells, drug in complete media
[22] = complete media vs cholesterol-free media + simvastatin (0.04 μM), >0 enhanced anti-cancer activity, about 0 neutral, <0 antagonist
[23] = Complete minus Cholesterol-free, greater than 0 enhanced anti-cancer activity, about 0 neutral, below 0 antagonist

`CCC(=O)OCC(=O)[C@@]1(OC(=O)CC)[C@@H](C)C[C@H]2[C@@H]3CCC4=CC(=O)C=C[C@]4(C)[C@@]3(F)[C@@H](O)C[C@@]21C` [Betamethasone dipropionate] was tested, and the Difference [1, 3] was −0.28, the Cholesterol-free [1, 4] was 0.9149 and the Complete ([1]; NCI-H292 cells, complete media) was 0.6317. For the same compound, the “Cholesterol-free media + simvastatin (0.04 μM)” value [2, 5] was 0.5238, the “Complete Media” value [2, 6] was 0.6181 and the Difference [2, 7] was 0.09.

With Trimebutine (maleate) the Difference [1, 8] was −0.13, the Cholesterol-free [1, 9] was 0.9442 and the Complete [1, 10] was 0.8142. The “Cholesterol-free media + simvastatin (0.04 μM)” value [2, 11] was 0.6516, the “Complete Media” value [2, 10] was 0.9282 and the Difference ([2]; complete media minus cholesterol-free media + simvastatin, […]) was 0.28.

`CC(C(=O)O)c1ccc(CC2CCCC2=O)cc1` (stereo not drawn) [Loxoprofen] showed a Difference ([1]; Complete minus Cholesterol-free, greater than 0 enhanced anti-cancer activity, about 0 neutral, below 0 antagonists) of −0.88, a Cholesterol-free [1, 12] of 1.914 and a Complete [1, 13] of 1.039. For the same compound, the “Cholesterol-free media + simvastatin (0.04 μM)” value [2, 5] was 0.9936, the “Complete Media” value [2, 6] was 1.115 and the Difference [2, 7] was 0.12.

Sorafenib (Tosylate) showed a Cholesterol-free [1, 14] of 0.8797, a Complete [1, 15] of 0.9619 and a Difference ([1]; complete vs cholesterol-free media, […]) of 0.08. For the same compound, the “Cholesterol-free media + simvastatin (0.04 μM)” value [2, 11] was 1.142 and the Difference [2, 16] was −0.09.

Bremelanotide (Acetate) gave a Difference [1, 8] of −0.90, a Cholesterol-free [1, 12] of 1.638 and a Complete [1, 13] of 0.7395. The “Cholesterol-free media + simvastatin (0.04 μM)” value [2, 17] was 1.644, the “Complete Media” value [2, 18] was 1.021 and the Difference [2, 16] was −0.62.

Work on `C[N+](C)(C)CCO.O=C([O-])C(O)C(O)C(=O)O` (stereo not drawn) [Choline (bitartrate)] yielded a Cholesterol-free [1] of 1.646, a Complete [1] of 0.8603 and a Difference [1] of −0.79. The “Cholesterol-free media + simvastatin (0.04 μM)” value [2] was 1.34, the “Complete Media” value [2] was 1.054 and the Difference [2] was −0.29.

Work on Dimenhydrinate yielded a Cholesterol-free [1, 4] of 1.237, a Complete ([1]; NCI-H292 cells, complete media) of 0.8523 and a Difference [1, 19] of −0.39. The “Cholesterol-free media + simvastatin (0.04 μM)” value [2, 5] was 0.8945, the “Complete Media” value [2, 6] was 0.9753 and the Difference [2, 7] was 0.08.

`CCCN1CCCC[C@H]1C(=O)Nc1c(C)cccc1C.CS(=O)(=O)O` [Ropivacaine (mesylate)] was tested, and the Cholesterol-free [1, 4] was 1.155, the Complete ([1]; NCI-H292 cells, complete media) was 0.7954 and the Difference [1, 19] was −0.36. For the same compound, the “Cholesterol-free media + simvastatin (0.04 μM)” value [2, 11] was 0.9302 and the Difference [2, 7] was 0.22.

`CC[C@H]1OC(=O)[C@H](C)[C@@H](O[C@H]2C[C@@](C)(OC)[C@@H](O)[C@H](C)O2)[C@H](C)[C@@H](O[C@@H]2O[C@H](C)C[C@H](N(C)C)[C@H]2O)[C@](C)(O)C[C@@H](C)CN(C)[C@H](C)[C@@H](O)[C@]1(C)O` [Azithromycin] gave a Difference [1, 3] of 0.05, a Cholesterol-free [1, 14] of 1.249 and a Complete [1, 15] of 1.303. For the same compound, the “Cholesterol-free media + simvastatin (0.04 μM)” value [2, 20] was 1.336, the “Complete Media” value [2, 21] was 1.162 and the Difference [2, 22] was −0.17.

With `CCOC(CN1CCN(CC(C)C(=O)c2ccccc2)CC1)c1ccccc1` (stereo not drawn) [Eprazinone (dihydrochloride)] the Difference [1, 23] was −0.09, the Cholesterol-free [1, 9] was 1.265 and the “Cholesterol-free media + simvastatin (0.04 μM)” value ([2]; NCI-H292 cells, cholesterol-free media with simvastatin 0.04 μM, FDA drug library screen (TABLE 2)) was 0.9386. For the same compound, the “Complete Media” value ([2]; NCI-H292 cells, complete media, FDA drug library screen (TABLE 2)) was 0.9227 and the Difference ([2]; complete media minus cholesterol-free media + simvastatin (0.04 μM), >0 enhanced anti-cancer activity, about 0 neutral, <0 antagonist) was −0.02.

`C[C@H]1CNCCCN1S(=O)(=O)c1cccc2cncc(F)c12` [Ripasudil] was tested, and the Cholesterol-free [1, 14] was 0.6571, the Complete [1, 15] was 0.9065 and the Difference ([1]; complete vs cholesterol-free media, >0 enhanced anti-cancer activity, about 0 neutral, <0 antagonist) was 0.25. The “Cholesterol-free media + simvastatin (0.04 μM)” value [2, 20] was 1.388, the “Complete Media” value [2, 21] was 1.177 and the Difference [2, 22] was −0.21.

Work on `CC(C(=O)O)c1ccc2c(c1)CC(=O)c1ccccc1S2` (stereo not drawn) [Zaltoprofen] yielded a Difference [1, 23] of −0.13, a Cholesterol-free [1, 9] of 1.151 and a Complete [1, 10] of 1.025. The “Cholesterol-free media + simvastatin (0.04 μM)” value [2, 17] was 1.283, the “Complete Media” value [2, 18] was 0.7256 and the Difference [2, 22] was −0.56.

`O=c1c(-c2ccc(O)cc2)coc2c([C@@H]3O[C@H](CO)[C@@H](O)[C@H](O)[C@H]3O)c(O)ccc12` [Puerarin] was tested, and the Difference [1, 3] was −0.27, the Cholesterol-free [1, 4] was 1.203 and the Complete ([1]; NCI-H292 cells, complete media) was 0.9306. The “Cholesterol-free media + simvastatin (0.04 μM)” value [2, 5] was 0.9456, the “Complete Media” value [2, 6] was 1.081 and the Difference [2, 7] was 0.14.

From patent US20250144067A1, “PERSONALIZED STARVATION THERAPY FOR CANCER” (Faeth Therapeutics, Inc., priority 2021, published 2025)
